In the supplement of paper PMC5579334:

Legend:
HS-Sch-2 [1] = test: % inhibition of CellTiter-Glo viability at highest tested concentration (72 h), relative to DMSO and benzethonium chloride controls; higher = more inhibition
How it was run: (§1)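 MPNST cell lines and primary human Schwann cells were seeded at 750–1000 cells per well into 384-well plates preprinted with each compound at five concentrations in 10-fold steps, then incubated 72 h at 37 °C, 5% CO2. CellTiter-Glo ATP luminescence gave viability, scaled between vehicle and positive-control wells, with duplicates averaged where present. Curves were fitted with a four-parameter logistic model. Percent inhibition refers to the top concentration, while drug sensitivity score and relative IC50, censored at the top concentration, come from these fits.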

YST-1 [2] = test: as above
How it was run: as §1

HS-PSS [3] = test: as above
How it was run: as §1

HS-PSS [4] = test: drug sensitivity score (DSS, CellTox-Green cytotoxicity, 72 h) (DSS (dimensionless)); higher = more cytotoxic; extreme values may be limits of the assay
How it was run: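 For 72 h at 37 °C, MPNST cell lines and primary human Schwann cells were exposed in 384-well plates to five 10-fold compound dilutions. CellTox-Green, added before seeding at a final 1:1000 dilution, gave fluorescence from DNA released by disrupted cells. Signals were scaled to vehicle and positive-control wells, cultures failing plate quality control were left out, and four-parameter logistic fits were applied. Relative IC50 and drug sensitivity score were derived from the fits, with IC50 censored at the top concentration.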

HS-Sch-2 [5] = test: drug sensitivity score (DSS, CellTiter-Glo viability, 72 h) (DSS (dimensionless)); higher = more sensitive; extreme values may be limits of the assay
How it was run: as §1

YST-1 [6] = test: as above
How it was run: as §1

HS-PSS [7] = test: as above
How it was run: as §1

SMILES: O=C(Nc1nc2ccccc2n1CCN1CCOCC1)c1cccc([N+](=O)[O-])c1 [IRAK1/4 inhibitor] (max concentration tested 25000 nM)
- % inhibition (HS-Sch-2 [1]): -2.86%
- % inhibition (YST-1 [2]): 6.78%
- % inhibition (HS-PSS [3]): 3.76%
- drug sensitivity score (HS-PSS [4]): 0
- drug sensitivity score (HS-Sch-2 [5]): 0
- drug sensitivity score (YST-1 [6]): 0
- drug sensitivity score (HS-PSS [7]): 0

SMILES: Cn1cc(C[C@@H](N)C(=O)O)c2ccccc21 [1-methyl-D-tryptophan] (max concentration tested 5000 nM)
- % inhibition (HS-Sch-2 [1]): 2.88%
- % inhibition (YST-1 [2]): -5.86%
- % inhibition (HS-PSS [3]): 6.24%
- drug sensitivity score (HS-PSS [4]): 0
- drug sensitivity score (HS-Sch-2 [5]): 0
- drug sensitivity score (YST-1 [6]): 0
- drug sensitivity score (HS-PSS [7]): 0

SMILES: CCCCNc1ncc(C(=O)NCc2ccc(-n3ccnc3)cc2)c(NC2CCC(O)CC2)n1 (centres undefined) [UNC2881] (max concentration tested 2500 nM)
- % inhibition (HS-Sch-2 [1]): 9.68%
- % inhibition (YST-1 [2]): 38.9%
- % inhibition (HS-PSS [3]): 37%
- drug sensitivity score (HS-PSS [4]): 0
- drug sensitivity score (HS-Sch-2 [5]): 0
- drug sensitivity score (YST-1 [6]): 3.6
- drug sensitivity score (HS-PSS [7]): 3.51

SMILES: COc1ncc(-c2ccc3nccc(-c4ccnnc4)c3c2)cc1NS(=O)(=O)c1ccc(F)cc1F [Omipalisib] (max concentration tested 1000 nM)
- % inhibition (HS-Sch-2 [1]): 83.8%
- % inhibition (YST-1 [2]): 94%
- % inhibition (HS-PSS [3]): 64.3%
- drug sensitivity score (HS-PSS [4]): 0
- drug sensitivity score (HS-Sch-2 [5]): 9.45
- drug sensitivity score (YST-1 [6]): 23.6
- drug sensitivity score (HS-PSS [7]): 10.6

SMILES: CCCCC/C=C/C=C1/C(=O)C=C[C@@H]1C/C=C\CCCC(=O)O [15D-PGJ2] (max concentration tested 3000 nM)
- % inhibition (HS-Sch-2 [1]): 16.9%
- % inhibition (YST-1 [2]): -5.83%
- % inhibition (HS-PSS [3]): 3.17%
- drug sensitivity score (HS-PSS [4]): 0
- drug sensitivity score (HS-Sch-2 [5]): 0.58
- drug sensitivity score (YST-1 [6]): 0
- drug sensitivity score (HS-PSS [7]): 0

SMILES: CCN(CC)CCCC(C)Nc1ccnc2cc(Cl)ccc12 (centres undefined) [Chloroquine] (max concentration tested 100000 nM)
- % inhibition (HS-Sch-2 [1]): 102%
- % inhibition (YST-1 [2]): 102%
- % inhibition (HS-PSS [3]): 102%
- drug sensitivity score (HS-PSS [4]): 9.74
- drug sensitivity score (HS-Sch-2 [5]): 17.1
- drug sensitivity score (YST-1 [6]): 9.66
- drug sensitivity score (HS-PSS [7]): 18.7

SMILES: C[C@H]1Oc2cc(cnc2N)-c2c(nn(C)c2C#N)CN(C)C(=O)c2ccc(F)cc21 (max concentration tested 1000 nM)
- % inhibition (HS-Sch-2 [1]): 14.9%
- % inhibition (YST-1 [2]): 3.35%
- % inhibition (HS-PSS [3]): 53.9%
- drug sensitivity score (HS-PSS [4]): 0
- drug sensitivity score (HS-Sch-2 [5]): 0.53
- drug sensitivity score (YST-1 [6]): 0
- drug sensitivity score (HS-PSS [7]): 12.3

SMILES: CC1(C)CCC(CN2CCN(c3ccc(C(=O)NS(=O)(=O)c4ccc(NCC5CCOCC5)c([N+](=O)[O-])c4)c(Oc4cnc5[nH]ccc5c4)c3)CC2)=C(c2ccc(Cl)cc2)C1 [Venetoclax] (max concentration tested 1000 nM)
- % inhibition (HS-Sch-2 [1]): 0.97%
- % inhibition (YST-1 [2]): 16.4%
- % inhibition (HS-PSS [3]): -9.6%
- drug sensitivity score (HS-PSS [4]): 0
- drug sensitivity score (HS-Sch-2 [5]): 0
- drug sensitivity score (YST-1 [6]): 0.21
- drug sensitivity score (HS-PSS [7]): 0

SMILES: Cc1cc(-c2ncc(-c3cccnc3)cc2/C=C/c2ccccc2)cnc1-c1cccnc1 [Pyridoclax] (max concentration tested 25000 nM)
- % inhibition (HS-Sch-2 [1]): 19.9%
- % inhibition (YST-1 [2]): 62.7%
- % inhibition (HS-PSS [3]): 9.44%
- drug sensitivity score (HS-PSS [4]): 0
- drug sensitivity score (HS-Sch-2 [5]): 1.52
- drug sensitivity score (YST-1 [6]): 16.5
- drug sensitivity score (HS-PSS [7]): 0.36

SMILES: CC(=O)c1cnc2ccc(-c3cc(Cl)c(O)c(Cl)c3)nc2c1N[C@H]1CC[C@H](CN(C)C)CC1 [OTSSP167] (max concentration tested 1000 nM)
- % inhibition (HS-Sch-2 [1]): 101%
- % inhibition (YST-1 [2]): 100%
- % inhibition (HS-PSS [3]): 83.1%
- drug sensitivity score (HS-PSS [4]): 0.29
- drug sensitivity score (HS-Sch-2 [5]): 18.5
- drug sensitivity score (YST-1 [6]): 23.8
- drug sensitivity score (HS-PSS [7]): 4.33

SMILES: N#Cc1c(Oc2ccc(F)c(NC(=O)Cc3cccc(C(F)(F)F)c3)c2)ccc2nc(NC(=O)C3CC3)sc12 [TAK-632] (max concentration tested 10000 nM)
- % inhibition (HS-Sch-2 [1]): 32.1%
- % inhibition (YST-1 [2]): 10.2%
- % inhibition (HS-PSS [3]): 37.5%
- drug sensitivity score (HS-PSS [4]): 0
- drug sensitivity score (HS-Sch-2 [5]): 1.14
- drug sensitivity score (YST-1 [6]): 0
- drug sensitivity score (HS-PSS [7]): 1.38

SMILES: COc1cccc(OCCCN)c1-c1cc(Nc2cnc(C#N)cn2)n[nH]1 [Prexasertib] (max concentration tested 10000 nM)
- % inhibition (HS-Sch-2 [1]): 88.6%
- % inhibition (YST-1 [2]): 76.3%
- % inhibition (HS-PSS [3]): 70%
- drug sensitivity score (HS-PSS [4]): 0.01
- drug sensitivity score (HS-Sch-2 [5]): 29.9
- drug sensitivity score (YST-1 [6]): 22.2
- drug sensitivity score (HS-PSS [7]): 6.05

SMILES: C=CC(=O)Nc1cccc(Nc2nc(Nc3ccc(N4CCN(C(C)=O)CC4)cc3OC)ncc2C(F)(F)F)c1 [Rociletinib] (max concentration tested 10000 nM)
- % inhibition (HS-Sch-2 [1]): 80.9%
- % inhibition (YST-1 [2]): 95.2%
- % inhibition (HS-PSS [3]): 86.4%
- drug sensitivity score (HS-PSS [4]): 3.25
- drug sensitivity score (HS-Sch-2 [5]): 4.99
- drug sensitivity score (YST-1 [6]): 8.73
- drug sensitivity score (HS-PSS [7]): 4.91

SMILES: N#CC1(c2ccc(NC(=O)c3cccnc3NCc3ccncc3)cc2)CCCC1 [Apatinib] (max concentration tested 10000 nM)
- % inhibition (HS-Sch-2 [1]): -2.67%
- % inhibition (YST-1 [2]): 18.9%
- % inhibition (HS-PSS [3]): 11.6%
- drug sensitivity score (HS-PSS [4]): 0
- drug sensitivity score (HS-Sch-2 [5]): 0
- drug sensitivity score (YST-1 [6]): 1.19
- drug sensitivity score (HS-PSS [7]): 0

SMILES: Cn1nccc1Nc1nccc(-c2ccn([C@H](CO)c3ccc(Cl)c(F)c3)c(=O)c2)n1 [GDC-0994] (max concentration tested 10000 nM)
- % inhibition (HS-Sch-2 [1]): 92.6%
- % inhibition (YST-1 [2]): 40%
- % inhibition (HS-PSS [3]): 8.18%
- drug sensitivity score (HS-PSS [4]): 0
- drug sensitivity score (HS-Sch-2 [5]): 5.84
- drug sensitivity score (YST-1 [6]): 1.37
- drug sensitivity score (HS-PSS [7]): 0

SMILES: Cc1ncc(-c2ccnc(Nc3ccc(S(C)(=O)=O)cc3)n2)n1C(C)C [AZD-5438] (max concentration tested 10000 nM)
- % inhibition (HS-Sch-2 [1]): 100%
- % inhibition (YST-1 [2]): 99.2%
- % inhibition (HS-PSS [3]): 72%
- drug sensitivity score (HS-PSS [4]): 0.3
- drug sensitivity score (HS-Sch-2 [5]): 8.28
- drug sensitivity score (YST-1 [6]): 9.62
- drug sensitivity score (HS-PSS [7]): 12.4

SMILES: CCc1cc(Nc2nccc(-c3c(-c4ccc(OC)c(C(=O)Nc5c(F)cccc5F)c4)nc4ccccn34)n2)c(OC)cc1N1CCC(N2CCN(S(C)(=O)=O)CC2)CC1 (max concentration tested 10000 nM)
- % inhibition (HS-Sch-2 [1]): 7.21%
- % inhibition (YST-1 [2]): 52.3%
- % inhibition (HS-PSS [3]): 4.32%
- drug sensitivity score (HS-PSS [4]): 0
- drug sensitivity score (HS-Sch-2 [5]): 0.89
- drug sensitivity score (YST-1 [6]): 16.1
- drug sensitivity score (HS-PSS [7]): 0
